Measured values from patent US20040132697A1, “Treatment of female sexual dysfunction” (Pfizer Inc., priority 2002, published 2004).
Structures can show the parent of a compound that is named as a salt.

Tests used:
[1] = system: anaesthetised rabbit model of female sexual arousal; test: Anaesthetised rabbit model of female sexual arousal: pelvic nerve stimulated genital blood flow (laser Doppler); assay type: in vivo; conditions: for Potentiation of pelvic nerve stimulated increases in vaginal blood flow (% increase over basal increase): i.v. infusion, n=4
Description: We have developed an animal model that mimics the physiological arousal response observed during female sexual arousal and directly reflects the clinical data obtained in human volunteers. The model uses Laser Doppler technologies to record small changes in vaginal and clitoral blood flow induced by pelvic nerve stimulation or vasoactive neurotransmitters. During sexual arousal, there is an increase in genital blood flow resulting from increased innervation from the pelvic nerve. The pelvic nerve-stimulated increase in vaginal and clitoral blood flow, observed in the animal model, represents the endogenous vascular effects observed during female sexual arousal. Therefore this model can be used to firstly, identify the mechanisms involved in the regulation of vaginal and clitoral blood flow and secondly, to validate novel approaches for the enhancement of genital blood flow.
(a) The Experimental Details are Described in European patent application EP 1 097 719 A1, Paragraphs [0495]-[0500]
(b) Infusion of Test Compound to Achieve Free Plasma Concentration Equivalent to 0.1 to 100 Times the pA2 α1A and/or α1L Adrenergic Receptors.
To achieve steady state plasma concentrations of the test compound, a loading dose was administered followed by infusion of a steady state dose. The test compound was made up in acidified saline (5% 1M HCl in saline) and details of the infusion protocols are given in the Table below. Test compound and vehicle controls were infused at the same rate. The test compound was infused for 15 minutes prior to pelvic nerve stimulation.
All data are reported as mean±s.e.m. (Standard error of the mean). Significant changes were identified using Student's t-tests (independent).
Compound 1, a potent and selective α1A and/or α1L adrenergic receptor antagonist, enhanced pelvic nerve stimulated (PNS) increases in genital blood flow in the anaesthetised rabbit model of sexual arousal. Repetitive PNS at 15 minute intervals induced reproducible increases in genital blood flow (Open Bar). […] The percentage increase over basal stimulations are showin in table 1 below. […] Data expressed as mean±sem (n=4); all changes were monitored using laser Doppler technologies.

FSAD = conditions: Rosen, R. C. et al (1999) J. Sex Marital Therapy 25, 137-144; cited from earlier work

| Compound | Clitoral blood flow ([1]; data not shown) | Cardiovascular effects ([1]; during infusion) | Potentiation of pelvic nerve stimulated increases in vaginal blood flow (% increase over basal increase) ([1]; free plasma concentration 0.1 × pA2 α1A and/or α1L) [%] | Potentiation of pelvic nerve stimulated increases in vaginal blood flow (% increase over basal increase) ([1]; free plasma concentration 1 × pA2 α1A and/or α1L) [%] | Potentiation of pelvic nerve stimulated increases in vaginal blood flow (% increase over basal increase) ([1]; free plasma concentration 10 × pA2 α1A and/or α1L) [%] | Potentiation of pelvic nerve stimulated increases in vaginal blood flow (% increase over basal increase) ([1]; free plasma concentration 100 × pA2 α1A and/or α1L) [%] | Pelvic nerve stimulated (PNS) increases in genital blood flow ([1]; submaximal stimulation (eg 4 Hz), versus time matched or vehicle controls) | Effect on FSAD in small pilot study (FSAD) |
| --- | --- | --- | --- | --- | --- | --- | --- | --- |
| COc1cc(C2CC2)c2c(=O)[nH]c(N3CCc4nc(CN5CCOCC5)ccc4C3)nc2c1 [Compound 1, 5-cyclopropyl-7-methoxy-2-(2-(4-morpholinylmethyl)-7,8-dihydro[1,6]naphthyridin-6(5H)-yl)-4(3H)-quinazolinone] | increased | No significant cardiovascular effects | 39 | 102 | 104 | 213 | enhanced |  |
| Cc1ccc(N(CC2=NCCN2)c2cccc(O)c2)cc1 [Phentolamine mesylate] |  |  |  |  |  |  |  | mild improvements |
